Here are results for 18 compounds from paper PMC6332397, “Anti-Protozoal Activities of Cembrane-Type Diterpenes from Vietnamese Soft Corals” (Molecules, 2015).

Structures are written as SMILES. Where “and” joins values, the source holds several entries; their conditions need not be identical. Equal values may be shown once. Read-outs that look alike come from different tables or passages of the source. A value given as a limit tells only on which side of the number the result lay.

A short description of series [1]: Cytotoxicity assay against L6 cells. The class given is cell-based. The following applies: rat skeletal myoblast L6, mean ± margin of deviation of two independent determinations. The protocol: Cytotoxicity was assessed using rat skeletal myoblasts (L6 cells) and a similar protocol as used for the Tbr assay. […] All following steps were according to the T. b. rhodesiense protocol (see Section 3.3. above).

In series [2] the test system is P. falciparum NF54 strain. As to the kind of experiment: Antiplasmodial activity, [3H]-hypoxanthine incorporation assay. The class given is cell-based, Plasmodium falciparum. The protocol: Antiplasmodial activity was determined using the NF54 strain of P. falciparum (drug sensitive). A modification of the [^3H]-hypoxanthine incorporation assay was used. […] After 48 h of incubation at 37 °C in a reduced oxygen atmosphere, 0.5 μCi ^3H-hypoxanthine was added to each well. Cultures were incubated for a further 24 h before they were harvested onto glass-fiber filters and washed with distilled water. The radioactivity was counted using a Betaplate™ liquid scintillation counter (Wallac, Zurich, Switzerland). […] From the sigmoidal inhibition curves IC50 values were calculated. Assays were run in duplicate and repeated once.

The test system of series [3] is T. b. rhodesiense STIB 900 bloodstream forms. As to the kind of experiment: Anti-trypanosomal activity on T. brucei rhodesiense (Alamar blue). The class given is cell-based, Trypanosoma brucei rhodesiense. The protocol: Minimum Essential Medium with Earle’s salts (50.0 µL) supplemented with 0.2 mM 2-mercaptoethanol, 1.0 mM Na pyruvate and 15% heat-inactivated horse serum was added to each well of a 96-well microtiter plate. Serial drug dilutions of eleven 3-fold steps covering a range from 100 to 0.002 µM were prepared. Then 10^4 bloodstream forms of T. b. rhodesiense STIB 900 in 50.0 µL of medium were added to each well and the plate incubated at 37 °C under a 5% CO2 atmosphere for 72 h. Alamar blue solution (10.0 µL of a solution of 12.5 mg resazurin dissolved in 100 mL distilled water) were then added to each well and incubation continued for a further 2–4 h. The plate was then read in a Spectramax Gemini XS microplate fluorometer (Molecular Devices Corporation, Sunnyvale, CA, USA) using an excitation wavelength of 536 nm and emission wavelength of 588 nm. Fluorescence development was measured and expressed as percentage of the control. Data were transferred into the graphic programme Softmax Pro (Molecular Devices), which calculated IC50 values.

The test system of series [4] is L. donovani amastigotes (strain MHOM/ET/67/L82). As to the kind of experiment: Antileishmanial activity on L. donovani (axenic amastigote assay). In kind it is cell-based, Leishmania donovani. The settings on record: for IC50: 72 h, axenic amastigotes, mean ± margin of deviation of two independent determinations. The protocol: Fifty µL of SM medium at pH 5.4 supplemented with 10% heat-inactivated FBS, was added to each well of a 96-well microtiter plate. Serial drug dilutions were prepared covering a range from 100.0 to 0.002 µM. Then 10^5 axenically grown L. donovani amastigotes (strain MHOM/ET/67/L82) in 50.0 µL medium were added to each well and the plate incubated at 37 °C under a 5% CO2 atmosphere for 72 h. Resazurin solution (10.0 µL, 12.5 mg resazurin dissolved in 100 mL distilled water) were then added to each well and incubation continued for a further 2–4 h. The plate was then read in a Spectramax Gemini XS microplate fluorometer (Molecular Devices, Sunnyvale, CA, USA) using an excitation wavelength of 536 nm and emission wavelength of 588 nm. Fluorescence development was measured and expressed as percentage of the control. Data were transferred into the graphic programme Softmax Pro (Molecular Devices) which calculated IC50 values from the sigmoidal inhibition curves.

Series [5] has as its system T. brucei. The settings on record: cited from earlier work.
For series [6], the system named is malarial parasite. Set-up: method as in PMID 21157686. The following applies: cited from earlier work.
Setting [7] is: Plasmodium falciparum, NF54, read-out: IC50 Values P. falciparum.
Where [8] appears, read: L6 cells (rat skeletal myoblasts).
Where [9] appears, read: 72 h; mean ± margin of deviation of two independent determinations; read-out: IC50 Values T. b. rhodesiense.
Setting [10] is: Trypanosoma brucei, 72 h; mean ± margin of deviation of two independent determinations; read-out: IC50 Values T. b. rhodesiense.
Setting [11] is: Plasmodium falciparum, NF54, NF54 strain, mean ± margin of deviation of two independent determinations, read-out: IC50 Values P. falciparum.

On to `CCN(CC)CCCC(C)Nc1ccnc2cc(Cl)ccc12` (centres unmarked) [Chloroquine, reference compound], for which the figures for the concentration for half-maximal inhibition (IC50) in series [1] and in series [2] (setting [7]) were 120 ± 27.5 µM and 0.004 µM, respectively.

As to `COC(=O)C(C)C1=CC=C(C)CCC2OC2(C)CCC=C(C)CC1` (stereo not drawn) [Compound 1, 7S,8S-epoxy-1,3,11-cembratriene-16-oic methyl ester], the IC50 in series [1] (setting [8]) was greater than 54 µM; in series [3] (setting [9]) it was 1 ± 0.19 µM; in series [3] (setting [10]), no more than 1 µM; in series [2] (setting [11]) it was 22.95 ± 0.15 µM. Moreover, the “Activity against bloodstream forms of T. brucei (in words)” value (shortened to “Activity against bloodstream forms”) in series [3] is recorded as “showed activity”.

Consider `CC1=CCCC(C)(O)C=CC(C(C)C)CCC(C)=CCC1` [Compound 2, (1R,4R,2E,7E,11E)-cembra-2,7,11-trien-4-ol], for which the half-inhibitory concentration (IC50) in series [1] (setting [8]) is 49.4 ± 5.2 µM; in series [3] (setting [9]), 1.14 ± 0.5 µM; in series [3] (setting [10]) it was no more than 1 µM; in series [2] (setting [11]), 14.8 ± 0.9 µM. Also, in series [3], the “Activity against bloodstream forms” value is on record as “showed activity”. Further, the “Selectivity index, times more active against Tbr than against L6 cells” value (“Selectivity index, times more active” for short) in series [3] (L6 vs Tbr) worked out at 43.

For the compound `C/C1=C\[C@@H]2O[C@@H](O)[C@@]3(C)O[C@@]23CC/C(C)=C/CC[C@](C)(O)[C@@H](O)CC1` [Compound 6, Lobocrasol A], the concentration for half-maximal inhibition (IC50) in series [1] (setting [8]) is 56 ± 3.65 µM; in series [3] (setting [10]), 9.97 ± 0.64 µM; in series [4] (Leishmania donovani), less than 0.2 µM; in series [4] it was 0.18 ± 0.02 µM. Besides, the “Activity against bloodstream forms” value in series [3] was “showed activity”. Also, the “Antileishmanial activity (in words)” value in series [4] is “strongly and selectively active”.

As to `C/C1=C\[C@@H]2O[C@@H](O)[C@@]3(C)O[C@@]23CC/C(C)=C/CC[C@](C)(O)[C@H](O)CC1` [Compound 7, lobocrasol B], the “Antileishmanial activity (in words)” value in series [4] is “devoid of antileishmanial activity”.

As for `C=C1CO[C@H]2/C=C(\C)CC[C@@H](O)[C@@](C)(O)C/C=C/[C@](C)(O)CC[C@@]12O` [Compound 8, lobocrasol C], the half-maximal inhibitory concentration (IC50) in series [1] (setting [8]) was 40.5 ± 7.75 µM; in series [3] (setting [10]) it was 9.37 ± 0.74 µM; in series [2] (setting [11]), 7.37 ± 0.35 µM; in series [4] (Leishmania donovani) it was less than 0.2 µM; in series [4], 0.17 ± 0.05 µM. Moreover, the “Activity against bloodstream forms” value in series [3] is “showed activity”. Further, in series [4], the “Antileishmanial activity (in words)” value was “strongly and selectively active”.

`C/C1=C\[C@@H]2O[C@@H](O)[C@@]3(C)O[C@@]23CC/C(C)=C/CC[C@@]2(C)O[C@H]2CC1` [Compound 10, laevigatol A]: the half-maximal inhibitory concentration (IC50) is 28.8 ± 10.3 µM in series [1] (setting [8]); greater than 20 µM in series [3] (setting [10]); < 5 µM and 3.02 µM in series [2] (NF54 strain, mean ± margin of deviation of two independent determinations, read-out: IC50 Values P. falciparum); 3 µM in series [2] (setting [11]). Moreover, the “Selectivity index SI = IC50(L6)/IC50(parasite), P. falciparum” value in series [2] (L6 vs Pf) is recorded as 9.52.

As to `C=C1CO[C@H]2/C=C(\C)CC[C@@H]3O[C@]3(C)CC/C=C(\C)CC[C@@]12O` [Compound 11, laevigatol B], in series [5], the “In vitro activity against T. brucei (in words)” value was “active”.

In the case of `CC1=C2CCC3(C)OC2(OC1)C1C3CCC(C)(O)C2CCC1(C)O2` (centres unmarked) [Compound 12, crassumol D], the IC50 in series [1] (setting [8]) is 58.7 ± 1 µM; in series [3] (setting [9]) it was 0.61 ± 0.01 µM; in series [3] (setting [10]), no more than 1 µM. Further, the “Activity against bloodstream forms” value in series [3] is “showed activity”. For the same compound, in series [3] (L6 vs Tbr), the “Selectivity index, times more active” value worked out at 96.

On to `C=C1CCC2(O)C(=C)COC2C=C(C)CCC(O)C2(C)CCC1O2` (centres unmarked) [Compound 13, crassumol E], for which the 50% inhibitory concentration (IC50) is 43 ± 2.6 µM in series [1] (setting [8]), 0.72 ± 0.04 µM in series [3] (setting [9]), no more than 1 µM in series [3] (setting [10]) and 7.43 ± 0.86 µM in series [2] (setting [11]). The “Activity against bloodstream forms” value in series [3] is on record as “showed activity”. Moreover, the “Selectivity index, times more active” value in series [3] (L6 vs Tbr) is given as 60.

On to `C=C1CCC2=C(C)C(=O)OC2C=C(C)CCC(O)C2(C)CCC1O2` (centres unmarked) [Compound 15, Crassumol G], for which the half-inhibitory concentration (IC50) turned out to be 33.2 ± 13.5 µM in series [1] (setting [8]), 12.2 ± 0.1 µM in series [3] (setting [10]) and 7.57 ± 0.59 µM in series [2] (setting [11]). For the same compound, in series [3], the “Activity against bloodstream forms” value is recorded as “showed activity”.

As for `C=C1CCC(C(C)C)C=CC(C)(O)CC=CC(C)(O)CCC1O` [Compound 16, (1S,2E,4S,6E,8S,11S)-2,6,12(20)-cembrantriene-4,8,11-triol], the concentration for half-maximal inhibition (IC50) in series [1] (setting [8]) is 48.6 ± 3.45 µM; in series [3] (setting [9]) it was 0.65 ± 0.01 µM; in series [3] (setting [10]), no more than 1 µM. For the same compound, the “Activity against bloodstream forms” value in series [3] is “showed activity”. In addition, in series [3] (L6 vs Tbr), the “Selectivity index, times more active” value is 75.

`C=C(C)C1CC=C(C(=O)OC)CC(=O)CC(C)(O)C(O)C2=CC(C(=O)OC)=C(C1)O2` (centres unmarked) [Compound 17, Sinumaximol A]: the IC50 was 45 ± 2.9 µM in series [1], greater than 20 µM in series [3] (Trypanosoma brucei; 72 h; mean ± margin of deviation of two independent determinations; read-out: IC50 Values T. b. rhodesiense) and 7.2 ± 0.71 µM in series [2] (setting [7]).

In the case of `C=C(C)C1CCC23OC2C(CC(C)(O)C=C2C=C(C(=O)OC)C(OC)(C1)O2)OC3=O` (centres unmarked) [Compound 18, Sinumaximol C], the results for the half-maximal inhibitory concentration (IC50) in series [1] (setting [8]) and in series [3] (setting [10]) were 28.7 ± 9.95 µM and 9.88 ± 1.93 µM, respectively. Also, in series [3], the “Activity against bloodstream forms” value is listed as “showed activity”.

Turning to `C=C(C)C1CC(=O)CC2OC(C)(CC2=O)CC2C=C(C(=O)O2)C(OC)C1` (stereo not drawn) [Compound 21, 13-Epi-scabrolide C], the half-inhibitory concentration (IC50) in series [1] (setting [8]) amounted to 47.5 ± 6 µM; in series [3] (setting [10]) it was 11.8 ± 4.46 µM. In series [3], the “Activity against bloodstream forms” value is “showed activity”.

`Nc1nc(N)nc(Nc2ccc([As]3SCC(CO)S3)cc2)n1` (centres unmarked) [Melarsoprol, reference compound]: the half-inhibitory concentration (IC50) in series [1] is 28.9 ± 9.3 µM; in series [3] (Trypanosoma brucei, 72 h, read-out: IC50 Values T. b. rhodesiense), 0.005 µM.

With `CCCCCCCCCCCCCCCCOP(=O)([O-])OCC[N+](C)(C)C` [Miltefosine, reference compound], the concentration for half-maximal inhibition (IC50) in series [1] (setting [8]) amounted to 143 ± 35.3 µM; in series [4] (Leishmania donovani) it was 0.14 ± 0.05 µM.

Turning to `C/C1=C\CC/C(C)=C/C[C@](O)(C(C)C)CC/C(C)=C/CC1` [serratol, reference compound], the “In vitro activity against T. brucei (in words)” value in series [5] is on record as “also showed such activity”. The “Activity against the malarial parasite (in words)” value in series [6] is reported as “some activity”.
